Assay: Human HepG2 cell viability assay in 384 well format
Format: toxicity, cell-based
Design: dose 125 nL, time 70.5 hour; cytotoxicity at 70.5 h: concentration not given beside the values
Conditions: HepG2 cells, read-out: Inhibition

SMILES | cytotoxicity at 70.5 h
CCC1=NN2C(=N)/C(=C\c3cccn3-c3cccc(Cl)c3)C(=O)N=C2S1 | -0.175%
O=c1c2ccccc2nc2n1CCC2O (stereo unspecified) | -12.8%
CC[C@H]1CN2CC[C@H]1C[C@@H]2CNCc1ccc(OC)cc1 | -3.31%
CN1CCC(N2C[C@H](O)C[C@H]2c2nc(Cc3ccccc3)no2)CC1 | -7.37%
CC(C)(C)NC(=O)C[C@@H]1CCNC[C@@H]1Cc1cc(C(C)(C)C)on1 | -1.48%
Cc1ccc(-c2noc([C@@H]3C[C@H](NC(=O)NC(C)C)CN3C)n2)cc1 | -7.56%
CN1CCN(CC[C@@H]2CC[C@H](O)[C@@H](C(=O)Nc3ccccc3)O2)CC1 | 1.15%
O=C1N[C@@H]2CCN(C(=O)C3CC3)[C@@H]2C(=O)N1c1ccccc1 | -10.7%
COc1ccccc1-c1nnc([C@H]2CCN(C(C)=O)C2)o1 | -6.37%
c1cc(-c2nnc([C@H]3CCNC3)o2)ccn1 | -2.31%
CN1C(=O)CO[C@H]2CN(C(=O)Nc3ccc(F)cc3)C[C@H]21 | -7.97%
Fc1ccc2nc([C@H]3CCNC3)[nH]c2c1 | -0.112%
CC(C)NC(=O)N1CCN2C(=O)OC[C@H]2C1 | 10.9%
F[C@@H]1CN(CC2CC2)C[C@@H]1OCc1nc2ncccc2[nH]1 | -3.03%
O=C1NC[C@H]2CN(C3CCOCC3)CCN12 | -4.38%
CC1=C[C@@H](CN2CCCC2)[C@H](C(C)C)C[C@H]1Cc1nnc(C)o1 | -4.38%
COCC(=O)NC[C@H]1C[C@@H]2CCN1C[C@@H]2CN1CCc2ccccc2C1 | -12.4%
CC1=C[C@@H](CN2CCOCC2)[C@H](C(C)C)C[C@H]1Cc1nnc(C)o1 | -5.39%
COC(=O)c1cccc2nc([C@H]3CCN(Cc4ccccc4)C3)oc12 | -11.8%
CN1CCC[C@H]1c1nc(-c2cncnc2N)no1 | -7.81%
Nc1ncncc1-c1noc([C@@H]2CCCN2CC2CC2)n1 | 9.61%
Cc1ccc(S(=O)(=O)NC[C@H]2OC[C@@H](NCc3cccnc3)[C@@H]2O)cc1 | -7.82%

SMILES | cytotoxicity at 70.5 h
Cn1cncc1-c1nnc([C@H]2CCN(C3CCOCC3)C2)o1 | -3.04%
CN1C[C@@H](F)[C@@H](OCc2nc3ccccc3[nH]2)C1 | -5.45%
CC(C)NC(=O)NC[C@H]1OC[C@@H](NCc2ccc(F)cc2)[C@@H]1O | -4.37%
CC(C)(C)c1cc(C[C@H]2CNCC[C@H]2CC(=O)Nc2ccccc2)no1 | -2.1%
CC(C)NC[C@H]1COCc2nc3cccnc3n21 | -8.17%
CS(=O)(=O)N1CC[C@H](c2nc3ccc(C(F)(F)F)cc3[nH]2)C1 | -4.96%
FC(F)(F)Oc1ccc(-c2noc([C@@H]3Cc4nc[nH]c4CN3)n2)cc1 | -4.51%
CN1CCC(N2CC[C@H](c3nc4ccc(C(F)(F)F)cc4[nH]3)C2)CC1 | -13.2%
O=C1CO[C@H]2CN(C3CCOCC3)C[C@H]2N1Cc1ccccn1 | 1.72%
COCc1ccc(CN[C@H]2C[C@@H](Cc3cc(CCO)on3)C2(C)C)o1 | -1.61%
COc1ccc(-c2noc([C@@H]3C[C@@H](O)CN3C3CCOCC3)n2)cc1 | 41.8%
CC(C)C[C@@H]1N[C@H](C(=O)NC2CCOCC2)Cc2c[nH]c3cccc1c23 | -4.79%
CN1C(=O)CO[C@H](c2ccc(NC(=O)c3cccc(F)c3)cc2)[C@H]1CO | -0.0128%
CC(=O)N1CCC(N2CCOC[C@H]2c2nc(-c3cccnc3)c[nH]2)CC1 | 17.9%
CC(C)(C)CC(=O)NC[C@H]1OC[C@@H](NCc2ccccn2)[C@@H]1O | -10.1%
O=S(=O)(NC[C@H]1C[C@@H]2CCN1C[C@@H]2CN1CCCCC1)c1ccccc1 | -6.11%
CCN(CC)CC[C@H]1CN(C(=O)C(C)(C)C)CC[C@H]1CC(=O)O | -8.97%
CCNC(=O)N1CC[C@@H](CC(=O)O)[C@@H](CC2=NCCc3ccccc32)C1 | -2.71%
Cc1cc(O)cc2c(=O)oc(CC(C)O)cc12 (stereo unspecified) | -6.88%
Oc1ccc([C@H]2Oc3cc(O)cc(O)c3C[C@@H]2O)cc1 | -11.9%
Cc1nc(SCC(=O)Nc2ccc(C(N)=O)cc2)c(C#N)c(C)c1C | 4.83%
Cc1ccc(-c2noc(C(C)NS(C)(=O)=O)n2)cc1 (stereo unspecified) | 21.2%

SMILES | cytotoxicity at 70.5 h
Cc1ccc(-c2ccc(=O)n(CC(=O)Nc3nccs3)n2)cc1 | -4.07%
CN(C)CCNCC1CCOC(C)(C)C1 (stereo unspecified) | -10.1%
CCN(CC)CCCNCC1CCOC(C)(C)C1 (stereo unspecified) | -3.64%
CCN(CC)CCNc1c(-c2ccccc2)c(=O)c1=O | -0.107%
COc1ccc(C)cc1NC(=O)c1c(C)cn(C)c1CC(=O)O | -11%
COCCCNc1c(-c2ccc(Cl)cc2)c(=O)c1=O | 6.7%
CN1CCN(c2ccc(NS(=O)(=O)c3ccc(Cl)s3)cc2C(=O)O)CC1 | -2.11%
O=C(c1ccc(N2CCCCCC2)nn1)N1CCc2ccccc21 | -3.2%
CC(C)c1nnc(NC(=O)CSCc2cc(=O)n3ccccc3n2)s1 | -4.94%
Cc1cccc2nc(CSCC(=O)Nc3nnc(C(C)C)s3)cc(=O)n12 | -10.6%
CCCNC(=O)COc1cc(C)c2c(C)nn(-c3ccc(C)cc3)c2n1 | -2.23%
Cc1ccn(CCC(=O)NCc2ccco2)n1 | 0.885%
COc1ccccc1N1CCN(C(=O)CCn2ccc(C)n2)CC1 | 23.2%
O=C(CCn1cccc1)NCc1ccc(CN2CCCCCC2)o1 | 0.95%
CCCNC(=O)COc1cc(C)c2c(C)nn(-c3ccccc3)c2n1 | -4.53%
Cc1ccc(NC(=O)c2ccc(=O)n(CC(=O)NC3CCCC3)n2)cc1 | 4.71%
CCOCc1nc(N2CCCC2)sc1C(=O)NCc1ccco1 | -5.28%
CCOCCCNC(=O)C1(C)CCC(=O)N1c1ccccc1F (stereo unspecified) | -3.95%
CCOCCCNC(=O)C1(C)CCC(=O)N1c1ccccc1OC (stereo unspecified) | -8.49%
CC(=O)N1CCC2(C=C(C(=O)NC3CC3)c3ccccc32)CC1 | -13.7%
CN(C)C[C@@H]1C[C@@H]2CN(C(=O)Cc3cccs3)CC[C@@H]2N1C | 13.4%
C[C@@H]1CN(C(=O)Cc2ccsc2)C[C@]12CCN(CCN(C)C)C2=O | -10.3%

SMILES | cytotoxicity at 70.5 h
CCN1CCOCC2(CCCN(C(=O)c3cccc(O)c3)C2)C1 (stereo unspecified) | -6.13%
CN1C(=O)CCCC12CCCN(C(=O)c1ccc3c(c1)OCO3)C2 (stereo unspecified) | -15.9%
O=C(NCC1CC1)C1CCC2(CCN(C(=O)c3cccs3)CC2)O1 (stereo unspecified) | -15.2%
COc1ccc(C(=O)N2CCCC3(CCCC(=O)N3C)C2)cc1 (stereo unspecified) | -6.78%
COc1ncccc1CN1C[C@@H]2C[C@@H](C(=O)NCC3CC3)N(C)[C@@H]2C1 | -12.2%
Cn1cc(CN2CC[C@H]3[C@H]2CC(=O)N3Cc2ccncc2)cn1 | -15.4%
CCN1CCOCC2(CCCN(C(=O)c3cnccn3)C2)C1 (stereo unspecified) | -14.9%
CC(C)NC(=O)CC1COC2(CCN(Cc3ccco3)CC2)C1 (stereo unspecified) | 18%
Cn1ccnc1CN1CCOCC(Cc2ccccn2)C1 (stereo unspecified) | -12.6%
O=S(=O)(c1ccccc1Cl)N1CCc2nc(C3CCNCC3)ncc2C1 | -3.67%
CCC(=O)N1CCC(O)(c2ncc(OC)nc2OC)CC1 | -12.8%
O=C(c1ccc(F)cc1F)N1CC[C@H](O)[C@@H](N2CCOCC2)CC1 | -13.9%
CC(C)(N)C(=O)N1CCCC1c1cncc(Oc2ccc(F)cc2)n1 (stereo unspecified) | 0.148%
CCC(=O)N1CCC(Cc2nccnc2Nc2ccccn2)CC1 | 20.4%
COc1cccc(OC)c1CN1CCC2(CC(Nc3ccncn3)C2)C1 (stereo unspecified) | -9.12%
NC[C@H]1CC[C@H](C(NC(=O)c2ccccc2)c2ccccn2)CC1 (stereo partly specified) | 11.1%
Cn1cc(C(=O)N2CCC(Cc3nccs3)CC2)cn1 | 22.3%
CC(=O)N1CCCC1c1csc(Nc2cnccn2)n1 (stereo unspecified) | -4.91%
CC(=O)N1CCCC1c1cc(N2CCN(C3CCCC3)CC2)cc(C)n1 (stereo unspecified) | -7.01%
Cc1nc(-c2ccc(C(=O)O)cc2)cc(C2CCN(C(C)C)C2)n1 (stereo unspecified) | -9.52%
Cc1cc(C(=O)N[C@H](C)c2onc(C)c2C(=O)O)c(C)o1 | -4.02%
Cc1noc([C@@H](C)NCc2cccc(Cl)c2)c1C(=O)O | 2.52%

SMILES | cytotoxicity at 70.5 h
CC(=O)NC[C@@]1(COc2cnccn2)C[C@@H](O)[C@@H](O)C1 | -3.14%
O=C1CC2(CCNCC2)C(=O)N1Cc1ccc(F)cc1 | 29.9%
Fc1ccc(CN2CCC(c3n[nH]c4ncccc34)CC2)cc1F | 22.2%
CCC(=O)N1C[C@@H]2CCN(c3cnccn3)C[C@@H]2C1 | 35.4%
O=C(NCC1CC1)C1CCC2(CCN(C(=O)c3ccncc3)CC2)O1 (stereo unspecified) | 10.5%
COCCN1CCC2(CCCN(Cc3ccoc3)C2)C1=O (stereo unspecified) | 12.2%
O=C(c1ccc(F)cc1)N1CCC2(CC1)CC(N1CCOCC1)C2 | -13.1%
CC[C@@H]1N(Cc2ccco2)CCC[C@]12CCC(=O)N2C | 12.7%
Cc1ccc(CN2CCC3(CC2)CC(CC(=O)NC(C)C)CO3)s1 (stereo unspecified) | -7.06%
O=C(CC1CC1)N1CCC2(CCCN(CCOc3ccccc3)C2)C1 (stereo unspecified) | -11.8%
CCOCC(=O)N1C[C@@H]2CCN(c3cnccn3)C[C@@H]2C1 | -3.75%
O=C1C[C@H]2[C@@H](CCN2C(=O)Cc2ccsc2)N1Cc1cccnc1 | -3.76%
CN1[C@@H](C(=O)NCC2CC2)C[C@H]2CN(Cc3ccsc3)C[C@H]21 | 12.6%
CN1[C@H](CN2CCCC2)C[C@@H]2CN(C(=O)Cc3ccsc3)CC[C@@H]21 | -10.6%
Cc1cccc(CN2C(=O)C[C@H]3[C@@H]2CCN3Cc2nccs2)n1 | -22.3%
CN(Cc1cccnc1)C1CC2(CCN(c3ncccn3)CC2)C1 | -15.1%
Cc1cccc(CN2C(=O)C[C@@H]3[C@@H]2CCN3Cc2ccsc2)n1 | -8.36%
COc1cc(C2CC(=O)c3c(O)cc(O)cc3O2)ccc1O (stereo unspecified) | -8.7%

Source: ChEMBL document CHEMBL3507680, “University of Dundee, Gates Library screen for HepG2 cell viability”
